Data reported in patent publication US8282778B2, “Prevention of bacterial spore formation in a broke system of a board machine” (Kemira Oyj, priority 2006, dated 2012).
Like-named read-outs stand apart in the source and are kept apart here.

What was measured:
[1] = system: Bacillus licheniformis 217 strain; experiment: Example 1: sporulation of bacilli isolated from a board machine in sterilized dilute broke with spray starch; format: cell-based
Method: In this laboratory experiment, the effect of bivalent manganese and bivalent iron as well as a chelating agent (DTPA, diethylenetriaminepentaacetic acid) on the sporulation of bacilli isolated from a board machine was studied under conditions of the broke system. For the experiment, an inoculum free of spores was prepared from the Bacillus licheniformis 217 strain by carrying out three consecutive cultivations in a liquid medium for 24 hours (Tryptone-Yeast Extract Medium, +50° C., agitation at 100 rpm) using a low inoculation ratio (0.1% by volume/volume). Broke free of spores was produced by sterilizing dilute broke of the board machine. A low amount of spray starch used in the board machine was added to the broke to make up for the amount of starch consumed by bacterial activity during the transportation of the broke sample to the laboratory. The broke was divided into aliquots of 25 ml each and filled in tubes, followed by the addition of the test agents at different concentrations. […] The amounts of aerobic bacteria and aerobic spores in each tube were determined after different exposure times. The amount of aerobic bacteria were determined by a filtering method, whereas aerobic spores were determined from pasteurized (20 min, 80° C.) samples using the pour plate method (Plate Count Agar in both cases, 45° C., 3 d).

[2] = system: Bacillus licheniformis 217 strain; experiment: Example 3: sporulation of bacilli in broke, metals, DTPA and test product C; format: cell-based
Method: In this laboratory experiment, the effect of bivalent manganese and bivalent iron as well as a chelating agent (DTPA, diethylenetriaminepentaacetic acid) on the sporulation of bacilli isolated from a board machine was studied under conditions of the broke system. For the experiment, an inoculum free of spores was prepared from the Bacillus licheniformis 217 strain by carrying out three consecutive cultivations in a liquid medium for 24 hours (Tryptone-Yeast Extract Medium, +50° C., agitation at 100 rpm) using a low inoculation ratio (0.1% by volume/volume). Broke free of spores was produced by sterilizing dilute broke of the board machine. A low amount of spray starch used in the board machine was added to the broke to make up for the amount of starch consumed by bacterial activity during the transportation of the broke sample to the laboratory. The broke was divided into aliquots of 25 ml each and filled in tubes, followed by the addition of the test agents at different concentrations. 0.2% stock solutions of manganese (Mn(II)Cl2×4H2O) and iron (Fe(II)SO4×7H2O) in deionized water were sterile filtered using 0.2 μm spray filters. 25 μl of the Bacillus culture free of spores were added to each tube, followed by keeping the tubes at 45° C. (agitation at 100 rpm). The amounts of aerobic bacteria and aerobic spores in each tube were determined after different exposure times. The amount of aerobic bacteria were determined by a filtering method, whereas aerobic spores were determined from pasteurized (20 min, 80° C.) samples using the pour plate method (Plate Count Agar in both cases, 45° C., 3 d).
In this laboratory experiment, the effect of a test product C containing a dispersing agent and DTPA on sporulation of bacilli isolated from a board machine was studied under the conditions in the broke system. […]

[3] = pulping process; cited from earlier work
[4] = system: Bacillus subtilis bacteria; conditions: cited from earlier work
aconitase enzyme = aconitase enzyme (Bacillus subtilis, UniProt P09339); conditions: concentrations of less than 1 mM; cited from earlier work
aconitase enzyme, sequence (P09339 whole entry): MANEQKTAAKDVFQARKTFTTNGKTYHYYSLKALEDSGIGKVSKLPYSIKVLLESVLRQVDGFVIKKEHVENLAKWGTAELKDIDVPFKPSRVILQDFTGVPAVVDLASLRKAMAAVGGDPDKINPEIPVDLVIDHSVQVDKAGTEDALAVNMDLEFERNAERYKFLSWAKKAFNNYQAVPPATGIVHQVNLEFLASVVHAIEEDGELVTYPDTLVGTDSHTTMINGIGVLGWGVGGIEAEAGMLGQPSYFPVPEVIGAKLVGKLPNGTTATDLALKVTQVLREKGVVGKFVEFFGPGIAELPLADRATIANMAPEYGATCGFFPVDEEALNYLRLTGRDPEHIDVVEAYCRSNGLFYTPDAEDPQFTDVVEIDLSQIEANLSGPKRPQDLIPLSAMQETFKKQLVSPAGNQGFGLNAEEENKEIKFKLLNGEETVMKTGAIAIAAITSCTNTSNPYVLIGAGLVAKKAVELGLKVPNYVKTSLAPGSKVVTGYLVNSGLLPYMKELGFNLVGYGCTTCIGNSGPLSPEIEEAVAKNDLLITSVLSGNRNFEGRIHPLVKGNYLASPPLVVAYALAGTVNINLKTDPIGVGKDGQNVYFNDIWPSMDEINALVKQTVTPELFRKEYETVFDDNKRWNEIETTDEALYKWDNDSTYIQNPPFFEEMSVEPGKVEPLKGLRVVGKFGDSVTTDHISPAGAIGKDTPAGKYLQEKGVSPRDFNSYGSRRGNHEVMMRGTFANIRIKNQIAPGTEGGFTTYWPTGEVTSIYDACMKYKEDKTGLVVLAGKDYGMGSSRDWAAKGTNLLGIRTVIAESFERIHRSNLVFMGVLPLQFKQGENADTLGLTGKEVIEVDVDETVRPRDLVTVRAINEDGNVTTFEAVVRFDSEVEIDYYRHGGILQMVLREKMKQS

[5] = system: Bacillus subtilis bacteria; conditions: cited from earlier work; remark: listed apart in the source

Compound: O=C(O)CN(CCN(CC(=O)O)CC(=O)O)CCN(CC(=O)O)CC(=O)O [DTPA, diethylenetriaminepentaacetic acid]
- reduction of sporulation ([1]; 12.5 ppm (as active agent)): 79%
- inhibition of sporulation ([1]; 17.5 ppm): total inhibition
- toxicity to bacilli (amount of aerobic bacteria, FIG. 5) [2]: neither DTPA nor the test product C was toxic
- reduction of sporulation ([2]; 12 ppm (as active agent)): 99.4%
- sporulation frequency ([2]; 12 ppm (as active agent)): 0.11%

Compound: O=P(O)(O)CN(CCN(CP(=O)(O)O)CP(=O)(O)O)CCN(CP(=O)(O)O)CP(=O)(O)O [DTPMP, diethylenetriamine-pentakis methylenephosphonic acid]
- chelating performance for manganese [3]: over 95%

Compound: O=C(O)c1ccccn1 [alpha picolinic acid]
- sporulation ([4]; concentration of 0.4 mM): reduced sporulation
- growth ([4]; concentrations of less than 1 mM (<123 ppm)): not inhibited

Compound: c1ccc(-c2ccccn2)nc1 [dipyridyl]
- aconitase enzyme inhibition (aconitase enzyme): inhibited

Compound: [Mn+2] [manganese]
- amount of sporulating cells of the wild type strain ([5]; 0.006 ppm manganese addition): about 2.6%
- amount of sporulating cells of the wild type strain ([5]; 0.8 ppm of manganese added): 39%
- amount of sporulating cells ([5]; manganese addition of 0.1 ppm or more, growth medium rich in nutrients): increased

Compound: c1cnc2c(c1)ccc1cccnc12 [o-phenanthroline]
- aconitase enzyme inhibition (aconitase enzyme): inhibited

Compound: O=C(O)c1ccc2ccccc2n1 [quinaldic acid]
- aconitase enzyme inhibition (aconitase enzyme): inhibited
